{"source": "patent US20240360510A1", "about": "“DETECTION OF KDM1A LOSS OF ACTIVITY FOR DIAGNOSING ENDOCRINE DISORDERS” (UNIVERSITE PARIS-SACLAY, priority 2021, published 2024)", "key": {"[1]": {"system": "GIPR expression in H295R cells", "test": "GIPR messenger RNA by RT-qPCR in H295R cells after KDM1A inhibition", "type": "cell-based, human", "details": "for GIPR messenger RNA level (RT-qPCR): GSK-LSD1 at 0.5 μM", "protocol": "(§1) H295R cells were cultivated in DMEM/Ham's F-12 Medium supplemented with 2 mM Glutamine, 100 IU/mL Penicillin, 100 μg/mL Streptomycin, 10% Fetal Bovine Serum, 20 mM HEPES, and a mixture of Insulin (1 μM), Transferrin (5.8 mg/ml) and Selenium (60 nM). Human pancreatic β-cells EndoC-βH1 have also been used. They are cultivated as described in Ravassard P. et al^38.\n(§2) Cells were incubated up to 10 days with 0.5 μM GSK-LSD1 an irreversible inhibitor of KDM1A (Sigma-Aldrich).\n(§3) Transfection of siRNAs protocol was performed as follow. Briefly, H295R cells were cultivated in serum free Optimem medium (Life Technologies) for 2 hours, then incubated for 6 h with Lipofectamine RNAiMAX (2 μL/well) and 100 nM siRNA targeting KDM1A or Scrambled siRNA (Horizon). Two iterative transfections were performed at 1 and 3 days after seeding. Expression level of the studied gene was determined using reverse transcription quantitative polymerase chain reaction (RT-qPCR).\n(§4) RNA extraction from cell cultures and tissue protocol and RT-qPCR protocol were as follows: DNA was extracted from frozen adrenal samples using the phenol-chloroform-isoamyl alcohol extraction method. DNA was extracted from Formalin-Fixed Paraffin-Embedded (FFPE) sample using NucleoSpin DNA FFPE XS kit (Macherey-Nagel) or from blood leucocytes using either an automated QIAsymphony platform (Qiagen) or the Flexigene DNA Kit (Qiagen). Total RNA was extracted from tissues or cells using TRIzol reagent according to the manufacturer's instructions. After DNAse I treatment (New England Biolabs), 1 μg of total RNA was reverse transcribed using the High-Capacity cDNA reverse transcription kit (Life Technologies). Samples were analyzed by RT-qPCR using the Power SYBR® Green PCR Master Mix (Life Technologies) or the TaqMan Gene Expression Assays (Life Technologies, ref. 4331182 and 4448489) and were run on a QS6 Real-Time PCR System (Life Technologies). […] Relative expression of the gene of interest was expressed as a ratio of attomoles to attomoles of housekeeper genes."}, "[2]": {"system": "GIPR protein in H295R cells", "test": "GIPR protein by immunofluorescence and automated High-throughput Microscopy in H295R cells", "type": "cell-based, human", "protocol": "as §1, §2, §3\nCells were grown on a 24 well plates containing glass coverslips (14-mm diameter). After 24 h, siRNA targeting KDM1A or Scramble siRNA (100 nM) were transfected as described above. Briefly, cells were fixed with 4% paraformaldehyde and permeabilized 10 min with a 0.2% solution of Triton X100 diluted in PBS. […]\nSequential images (20×-0.40 NA lens) were acquired for each channel with the automated ArrayScan VTI imaging and analyzing platform (Thermo Fisher Scientific). The TargetActivation Algorithm (v.4) was used to detect and quantify the GIPR fluorescence as following. DAPI fluorescence was used to find the focus and was sequentially acquired with GIPR fluorescence in order to give separate image files. […] In order to quantify the amount of GIPR fluorescence (channel 2) present in the cytoplasm of the primary selected object, this nuclear mask was dilated to cover the cytoplasmic region. […] The cytoplasmic mask was lastly used to detect, select and quantify the average fluorescence of GIPR in the final population of transfected cells (n>40,000). […]"}, "[3]": {"system": "GIPR messenger RNA levels in human pancreatic β-cells EndoC-βH1", "test": "GIPR transcripts by RT-qPCR in pancreatic β-cells EndoC-βH1 after KDM1A inhibition", "type": "cell-based", "protocol": "as §1, §2, §3, §4"}}, "data": [{"smiles": "c1ccc([C@@H]2C[C@H]2NC2CCNCC2)cc1", "note": "[GSK-LSD1]", "values": [{"measurement": "GIPR messenger RNA level (RT-qPCR)", "setting": "[1]; seven days, p=0.0082", "result": "significant increase of GIPR expression"}, {"measurement": "GIPR messenger RNA level (RT-qPCR)", "setting": "[1]; three days, p=0.0069", "result": "significant increase of GIPR expression"}, {"measurement": "GIPR expression, quantified by RT-qPCR", "setting": "[1]; treatment with GSK-LSD1, time not given", "result": "increased GIPR expression"}, {"measurement": "GIPR protein expression in the cytoplasm (automated High-throughput Microscopy)", "setting": "[2]; H295R cells transfected (KDM1A siRNA) and treated (GSK-LSD1), seven days, p<0.0001, analyzed cells>40 000", "result": "increase in protein expression"}, {"measurement": "GIPR expression observed by immunofluorescence", "setting": "[2]; H295R cells, KDM1A siRNA transfection and concomitant pharmacological inhibition (GSK-LSD1) for seven days", "result": "significant GIPR expression"}, {"measurement": "expression of GIPR protein (automated High-throughput Microscopy)", "setting": "[2]; H295R cells, compared to untreated cells, analyzed cells>40 000, p<0.001", "result": "significant increased expression of GIPR protein"}, {"measurement": "GIPR transcripts (RT-qPCR)", "setting": "[3]; KDM1A siRNA and GSK-LSD1, 3 days of treatment, p=0.0113", "result": "significant increase in GIPR transcripts"}, {"measurement": "GIPR transcripts (RT-qPCR)", "setting": "[3]; KDM1A siRNA and GSK-LSD1, 7 days of treatment, p=0.0027", "result": "significant increase in GIPR transcripts"}, {"measurement": "GIPR expression (GIPR transcripts, RT-qPCR)", "setting": "[3]; KDM1A silencing and concomitant GSK-LSD1, time not given", "result": "increased GIPR expression"}]}]}
